Structures can show the parent of a compound that is named as a salt.
Tests used:
[1] = biological target: LMP7 (purified human immuno proteasome) (Homo sapiens, UniProt P28062); assay: Determination of LMP7 activity (fluorescence intensity assay, Suc-LLVY-AMC); assay type: biochemical; conditions: for IC50: 40 μM Suc-LLVY-AMC, 37° C.
How it was run: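 Purified human immunoproteasome (0.5 nM or 0.25 nM) preincubated 30 min at 37 °C with compounds (10 μM to 38 pM) in 50 mM Tris pH 7.4, 0.03% SDS. Suc-LLVY-AMC added at 40 μM; after 90 min at 37 °C, fluorescence read at ex 350/em 450 nm.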

[2] = biological target: Beta5 (purified human constitutive proteasome) (Homo sapiens, UniProt P28074); assay: Determination of Beta5 activity (fluorescence intensity assay, Suc-LLVY-AMC); assay type: biochemical; conditions: purified human constitutive proteasome 1.0 nM, 40 μM Suc-LLVY-AMC, 37° C.
How it was run: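 Purified human constitutive proteasome (1.0 nM) was preincubated 30 min at 37 °C with compounds (10 μM to 38 pM) in 50 mM Tris pH 7.4, 0.03% SDS. Suc-LLVY-AMC (40 μM) was then added and fluorescence (ex 350/em 450 nm) read after 90 min at 37 °C.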

[3] = purified human immuno proteasome 0.5 nM
[4] = purified human immuno proteasome 0.25 nM (examples 79, 80, 83, 84, 85, 87, 88, 89, 90, 91, 93, 94, 96, 97, 101 and 110)

Selectivity LMP7 vs Beta5 [1]	IC50 [1, 3]	IC50 [2]	IC50 [1, 4]	SMILES
++ (++: 10 < Selectivity < 30)	50 to 500 nM	500 to 5000 nM	–	O=C(CCC(=O)c1ccccc1)N[C@@H](Cc1ccsc1)B(O)O [Example 1, [(1R)-1-[(4-oxo-4-phenylbutanoyl)amino]-2-(3-thienyl)ethyl]boronic acid]
+++ (+++: Selectivity > 30)	50 to 500 nM	> 5000 nM	–	CCc1cccc(C[C@H](NC(=O)CCc2cn(-c3ccccc3)nn2)B(O)O)c1 [Example 58, (R)-(2-(3-ethylphenyl)-1-(3-(1-phenyl-1H-1,2,3-triazol-4-yl)propanamido)ethyl)boronic acid]
+++ (+++: Selectivity > 30)	< 50 nM	500 to 5000 nM	–	O=C(CCc1cn(-c2cccnc2)nn1)N[C@@H](Cc1ccc2ccccc2c1)B(O)O [Example 99, (R)-(2-(naphthalen-2-yl)-1-(3-(1-(pyridin-3-yl)-1H-1,2,3-triazol-4-yl)propanamido)ethyl)boronic acid]
++ (++: 10 < Selectivity < 30)	< 50 nM	50 to 500 nM	–	O=C(CCn1cnc2ccccc21)N[C@@H](Cc1cccc(C(F)(F)F)c1)B(O)O [Example 38, {(1R)-1-{[3-(1H-benzimidazol-1-yl)propanoyl]amino}-2-[3-(trifluoromethyl)phenyl]ethyl}boronic acid]
++ (++: 10 < Selectivity < 30)	< 50 nM	50 to 500 nM	–	O=C(CCn1cc(-c2ccccc2)nn1)N[C@@H](Cc1ccsc1)B(O)O [Example 40, [(1R)-1-{[3-(4-phenyl-1H-1,2,3-triazol-1-yl)propanoyl]amino}-2-(3-thienyl)ethyl]boronic acid]
+++ (+++: Selectivity > 30)	< 50 nM	500 to 5000 nM	–	COc1ccc(C(=O)C[C@@H](Cc2ccccc2)C(=O)N[C@@H](Cc2ccc(OC)c(C(F)(F)F)c2)B(O)O)cc1 [Example 45, ((R)-1-((R)-2-benzyl-4-(4-methoxyphenyl)-4-oxobutanamido)-2-(4-methoxy-3-(trifluoromethyl)phenyl)ethyl)boronic acid]
++ (++: 10 < Selectivity < 30)	–	50 to 500 nM	< 50 nM	O=C(Cc1cnc[nH]1)N[C@@H](Cc1coc2ccccc12)B(O)O [Example 83, (R)-(1-(2-(1H-imidazol-5-yl)acetamido)-2-(benzofuran-3-yl)ethyl) boronic acid hydrochloride]
++ (++: 10 < Selectivity < 30)	–	< 50 nM	< 50 nM	COc1cccc(CCC(=O)N[C@@H](Cc2coc3ccccc23)B(O)O)c1 [Example 84, (R)-(2-(benzofuran-3-yl)-1-(3-(3-methoxyphenyl)propanamido)ethyl) boronic acid]
–	50 to 500 nM	> 5000 nM	–	CCc1cccc(C[C@H](NC(=O)CCC(=O)c2ccccc2OC)B(O)O)c1 [Example 8, ((1R)-2-(3-ethylphenyl)-1-{[4-(2-methoxyphenyl)-4-oxobutanoyl]amino}ethyl)boronic acid]
+++ (+++: Selectivity > 30)	< 50 nM	500 to 5000 nM	–	CCOc1cccc(C[C@H](NC(=O)CCc2noc(-c3ccccc3)n2)B(O)O)c1 [Example 68, (R)-(2-(3-ethoxyphenyl)-1-(3-(5-phenyl-1,2,4-oxadiazol-3-yl)propanamido)ethyl)boronic acid]
++ (++: 10 < Selectivity < 30)	< 50 nM	< 50 nM	–	O=C(CCn1c(=O)sc2ccccc21)N[C@@H](Cc1csc2ccccc12)B(O)O [Example 105, (R)-(2-(benzo[b]thiophen-3-yl)-1-(3-(2-oxobenzo[d]thiazol-3(2H)-yl)propanamido)ethyl)boronic acid]
++ (++: 10 < Selectivity < 30)	–	< 50 nM	< 50 nM	O=C(CCn1cnc2ccccc21)N[C@@H](Cc1coc2ccccc12)B(O)O [Example 88, (R)-(1-(3-(1H-benzo[d]imidazol-1-yl)propanamido)-2-(benzofuran-3-yl)ethyl)boronic acid]
++ (++: 10 < Selectivity < 30)	< 50 nM	50 to 500 nM	–	COc1ccc(C(=O)CC(Cc2ccccc2)C(=O)N[C@@H](Cc2cc(F)cc(OC)c2)B(O)O)cc1 (stereo partly drawn) [Example 49, ((1R)-1-(2-benzyl-4-(4-methoxyphenyl)-4-oxobutanamido)-2-(3-fluoro-5-methoxyphenyl)ethyl)boronic acid]
++ (++: 10 < Selectivity < 30)	< 50 nM	< 50 nM	–	O=C(CCn1cnc2ccccc21)N[C@@H](Cc1csc2ccccc12)B(O)O [Example 106, (R)-(1-(3-(1H-benzo[d]imidazol-1-yl)propanamido)-2-(benzo[b]thiophen-3-yl)ethyl)boronic acid]
+++ (+++: Selectivity > 30)	50 to 500 nM	> 5000 nM	–	COc1ccc(C(=O)CCC(=O)N[C@@H](Cc2cc(F)cc(OC)c2)B(O)O)cc1 [Example 47, (R)-(2-(3-fluoro-5-methoxyphenyl)-1-(4-(4-methoxyphenyl)-4-oxobutanamido)ethyl)boronic acid]
–	500 to 5000 nM	> 5000 nM	–	O=C(N[C@@H](Cc1ccsc1)B(O)O)[C@H]1CCC[C@@H]1C(=O)c1ccccc1 (racemic) [Example 5, [1-({[(1RS,2SR)-2-benzoylcyclopentyl]carbonyl}amino)-2-(3-thienyl)ethyl]boronic acid]
++ (++: 10 < Selectivity < 30)	< 50 nM	50 to 500 nM	–	CCc1cccc(C[C@H](NC(=O)CCn2c(C)nc3ccccc32)B(O)O)c1 [Example 54, (R)-(2-(3-ethylphenyl)-1-(3-(2-methyl-1H-benzo[d]imidazol-1-yl)propanamido)ethyl)boronic acid]
++ (++: 10 < Selectivity < 30)	< 50 nM	50 to 500 nM	–	CCc1cccc(C[C@H](NC(=O)CCn2cnc3ccccc32)B(O)O)c1 [Example 29, [(1R)-1-{[3-(1H-benzimidazol-1-yl)propanoyl]amino}-2-(3-ethylphenyl)ethyl]boronic acid]
+++ (+++: Selectivity > 30)	< 50 nM	500 to 5000 nM	–	COc1ccc(C(=O)CC(Cc2ccccc2)C(=O)N[C@@H](Cc2cccc(C(F)(F)F)c2)B(O)O)cc1 (mixture of isomers) [Example 27, {(1R)-1-{[2-(RS)-benzyl-4-(4-methoxyphenyl)-4-oxobutanoyl]amino}-2-[3-(trifluoromethyl)phenyl]ethyl}boronic acid]
++ (++: 10 < Selectivity < 30)	< 50 nM	< 50 nM	–	O=C(CCn1cc(-c2ccccc2)nn1)N[C@@H](Cc1ccc2c(c1)OCO2)B(O)O [Example 107, (R)-(2-(benzo[d][1,3]dioxol-5-yl)-1-(3-(4-phenyl-1H-1,2,3-triazol-1-yl)propanamido)ethyl)boronic acid]
+++ (+++: Selectivity > 30)	< 50 nM	50 to 500 nM	–	CCc1cccc(C[C@H](NC(=O)CCn2cc(-c3ccccc3OC)nn2)B(O)O)c1 [Example 73, (R)-(2-(3-ethylphenyl)-1-(3-(4-(2-methoxyphenyl)-1H-1,2,3-triazol-1-yl)propanamido)ethyl)boronic acid]
+++ (+++: Selectivity > 30)	< 50 nM	500 to 5000 nM	–	CC(=O)N[C@@H](Cc1coc2ccccc12)B(O)O [Example 78, (R)-(1-acetamido-2-(benzofuran-3-yl)ethyl)boronic acid]
++ (++: 10 < Selectivity < 30)	50 to 500 nM	500 to 5000 nM	–	O=C(CCC(=O)c1ccc2ccccc2c1)N[C@@H](Cc1ccsc1)B(O)O [Example 21, [(1R)-1-{[4-(2-naphthyl)-4-oxobutanoyl]amino}-2-(3-thienyl)ethyl]boronic acid]
++ (++: 10 < Selectivity < 30)	< 50 nM	50 to 500 nM	–	COc1ccc(-n2cc(CCC(=O)N[C@@H](Cc3ccc4ccccc4c3)B(O)O)nn2)cc1 [Example 100, (R)-(1-(3-(1-(4-methoxyphenyl)-1H-1,2,3-triazol-4-yl)propanamido)-2-(naphthalen-2-yl)ethyl)boronic acid]
++ (++: 10 < Selectivity < 30)	50 to 500 nM	500 to 5000 nM	–	O=C(CCc1noc(-c2ccccc2)n1)N[C@@H](Cc1ccsc1)B(O)O [Example 37, [(1R)-1-{[3-(5-phenyl-1,2,4-oxadiazol-3-yl)propanoyl]amino}-2-(3-thienyl)ethyl]boronic acid]
++ (++: 10 < Selectivity < 30)	< 50 nM	50 to 500 nM	–	CCOc1cccc(CC(NC(=O)CCn2cc(-c3ccccc3)nn2)B(O)O)c1 (stereo not shown) [Example 70, (2-(3-ethoxyphenyl)-1-(3-(4-phenyl-1H-1,2,3-triazol-1-yl)propanamido)ethyl)boronic acid]
+ (+: Selectivity < 10)	< 50 nM	50 to 500 nM	–	COc1ccc(C[C@H](NC(=O)CCn2cnc3ccccc32)B(O)O)cc1C(F)(F)F [Example 53, (R)-(1-(3-(1H-benzo[d]imidazol-1-yl)propanamido)-2-(4-methoxy-3-(trifluoromethyl)phenyl)ethyl)boronic acid]
